Measured values: patent EP1261344B1, “USE OF INDOLOQUINOXALINES FOR THE TREATMENT OF MULTIPLE SKLEROSIS” (OxyPharma AB, priority 2000, dated 2001)

Columns and labels:
Acute toxicity in rat = conditions: in vivo
[1] = tested on: EAE (experimental autoimmune encephalomyelitis) model; experiment: EAE (experimental autoimmune encephalomyelitis) rat model, clinical score; assay type: in vivo, Lewis rats; conditions: for onset is delayed / recovery starts earlier: Figure 2, versus control
[2] = Acute toxicity in rabbit, cutaneous; conditions: in vivo, topical or ocular, read-out: NOEL (No Observable Effect Level)
mice = experiment: Chronic toxicity in mice, up to 270 days; assay type: in vivo; conditions: tested up to 270 days on mice

## Cc1cc2nc3c4ccccc4n(CCN(C)C)c3nc2cc1C [B-220]
Acute toxicity in rat; intravenous, read-out: NOEL (No Observable Effect Level)
  NOAEL: 12.5 mg/kg
Acute toxicity in rat; iv
  LD50: > 100 mg/kg
Acute toxicity in rat; po
  LD50: > 800 mg/kg
[1]; Figure 1, 6 mg/animal daily, clinical score scale 0-5, versus negative control
  reduces the CNS symptoms: 2/3
[1]; 6 mg/animal
  onset is delayed: ~2 days
  recovery starts earlier: ~2 days
[1]; 12 mg/animal
  onset is delayed: ~4 days
  recovery starts earlier: ~3 days
[2]
  NOAEL: 200 mg/kg
mice
  chronic toxicity: has not induced toxicity
